How the values were obtained:
Assay type in all cases: in vivo, mouse
ob/ob mice [1] = assay: Intracerebralventricular (i.c.v.) injection of human CRP and leptin in ob/ob mice, food intake and body weight
Procedure: Male C57BL/6J ob/ob mice used in this study were obtained from the Jackson Laboratory, Bar Harbor. Mice (7-8 weeks of age) were fed standard chow and water ad libitum, housed in individual cages under controlled temperature at 22° C. and a 12-hour light-dark cycle with light from 0700 to 1900 h. Food intake and body weight were measured daily throughout the study. All experimental procedures were performed according to protocols approved by the Institutional Animal Care and Use Committee at the University of Pittsburgh. Cannulas were surgically implanted into the lateral ventricles of male ob/ob mice. Specifically, the mice were intraperitoneally anesthetized with 250 mg/Kg Avertin (Sigma-Aldrich). A plastic cannula was inserted into lateral cerebral ventricle: −0.7 mm relative to bregma, 1.3 mm lateral of midline, and 2 mm down to the calvarium. The exteriorized cannula was secured on the skull with original Super Glue. To prevent the cannula from becoming blocked by blood clots, a 28-gauge stainless syringe pinhead was inserted into each cannula. The animals were allowed to recover for 1 week after surgery until the food-intake reaches at least 90% of the pre-operative level. All agents were injected slowly with a volume of 1 μl using a 5 μl syringe (Hamilton, Reno, Nev.). For instance, human CRP was injected at a lower concentration of 1.2 μg per animal and a higher concentration of 2.3 μg per animal into the lateral ventricles. The i.c.v injection of human CRP was followed 24 hours later by injection of human leptin at a sub-maximal dose of 100 ng/animal. In a parallel experiment, human leptin was also injected via i.c.v. following a pre-injection of PBS. In each injection scheme, food was returned to the animals 1 hour after the injection, and the amount of food-intake and body weight were measured 24 hours later. All paired comparisons were subject to a two-tailed Student t-test with P<0.05 considered statistically significant. Additionally, human leptin was injected via i.c.v. for an extended period of two days subsequent to a pre-injection of human CRP with a dosage of 2.3 μg/injection. In a parallel experimental scheme, daily injection of human leptin was performed for two consecutive days subsequent to a pre-injection of PBS.

[2] = system: tyrosine phosphorylation of STAT3 in the hypothalamic tissues; assay: Tyrosine phosphorylation of STAT3 in hypothalamic tissues after i.c.v. injection (Western blot)
Procedure: The hypothalamic tissues were surgically dissected right after sacrificing the mice. A portion of each tissue was extracted for protein in a protein lysis buffer. The activation of STAT3 was evaluated using Western blot assays with an antibody against phospho-tyrosine-STAT3 as described above (Cell Signaling, Beverly, Mass.). The membrane was striped and applied with an antibody against STAT3 to evaluate the overall level of STAT3 (Cell Signaling, Beverly, Mass.).
To determine whether the interaction between human CRP and leptin dampens the cellular actions of leptin, an assessment was made of the ability of leptin to stimulate tyrosine phosphorylation of STAT3 in the hypothalamic tissues. As described above, human CRP at 2.3 μg/injection or PBS was pre-injected via i.c.v., followed by an injection of human leptin or mouse leptin, each at 100 ng/injection. Subsequently, the hypothalamic tissues were dissected and immediately placed into liquid nitrogen for a rapid freezing. A portion of the frozen tissue was homogenized in a protein lysis buffer for the extraction of proteins. The protein extract was then subjected to Western blot assay as described above.

ob/ob mice [3] = assay: Subcutaneous micro-osmotic pump infusion of human CRP and human leptin in ob/ob mice; conditions: for effect of CRP alone on food intake and body weight: CRP without leptin
Procedure: Micro-osmotic pumps (#1007D, DURECT, Cupertino, Calif.) were subcutaneously implanted into ob/ob or wild-type mice according to the instructions of the manufacturer. The osmotic pumps were pre-filled with saline, CRP, leptin or leptin plus CRP. Food intake (24-hour), body weight, and body temperature were monitored daily post-surgery. Blood glucose concentrations were measured using tail-vein blood samples using a Precision Plus® glucose meter, product of Medisense (Abbot Park, Ill.).
Human- and mouse-leptin concentrations were measured using ELISA kits from CHEMICON (Temecular, Calif.) and R&D Systems (Minneapolis, Minn.), respectively, accordingly to the instructions of the manufacturers. Serum mouse insulin and human CRP were determined with ELISA kits from LINCO Research (St. Charles, Mo.) and HELICA (Fullerton, Calif.), respectively. Serum- and tissue-triglycerides were determined with the protocols described previously (19).
Various amounts of human CRP, either alone or with human leptin, were administered via micro-osmotic pumps implanted s.c. into 8-week old ob/ob mice.
The above in vivo data were harvested from mice experiencing infusions of a mixture of CRP and leptin stored in a single mini-osmotic pump. Human CRP and leptin were also infused in separate osmotic pumps. […] Also compared to infusion from a single pump, detectable effects of human CRP on leptin were realized later, likely due to the time required to achieve diffusion and binding equilibrium.

CRP-transgenic mice = assay: Human leptin infusion in mice transgenically expressing human CRP and wild-type littermates
Procedure: To complement the in vivo studies further, the satiety and weight-reducing functions of human leptin were evaluated in mice producing transgenically expressed human CRP (24). The average baseline serum concentration of human CRP in these mice was approximately 15 μg/ml. […] To evaluate the effects of human leptin in the transgenic mice, a dose of 0.6 mg/kg/day, which has been known to maximally but only temporarily affected energy balance in wild-type mice (25), was infused. […] At the end of infusion, the total human leptin concentration in the sera of transgenic mice averaged at 7.6 ng/ml, which was higher than that in the wild-type littermates at 3.2 ng/ml.

[4] = human leptin 100 ng/animal i.c.v. after PBS pre-injection, 24 hours

human leptin: human recombinant leptin
effect of daily injection of human leptin for two days on food intake and body weight (ob/ob mice [1]; after PBS pre-injection): gradual decreases in food intake and body weight
decrease in food-intake (ob/ob mice [1]; [4]): 40.2%
reduction of body weight (ob/ob mice [1]; [4]): 2.17%
level of phosph-STAT3 in hypothalamic tissues after leptin ([2]; human leptin 100 ng/injection following PBS): sharp increase
total human leptin concentrations in the sera (ob/ob mice [3]; all groups infused with leptin (leptin only or leptin plus CRP), separate osmotic pumps): 15 to 20 ng/mL
effect of leptin on diabetes (blood glucose, plasma insulin, serum- and hepatic triglyceride) (ob/ob mice [3]; ob/ob mice): alleviated diabetes
effect of human leptin on food-intake and body weight (ob/ob mice [3]; ob/ob mice, 0.3 mg/kg/day s.c. infusion, 6 days): expected reduction in food-intake and body weight
physiological effects of human leptin in CRP-transgenic mice (CRP-transgenic mice; 0.6 mg/kg/day infusion, CRP-transgenic mice): completely blunted
effect of human leptin on food intake, body weight, epidydimal fat-pad weight in wild-type littermates (CRP-transgenic mice; 0.6 mg/kg/day infusion, wild-type littermates): expected reductions in food intake, body weight, and epidydimal fat-pad weight
total human leptin concentration in sera, transgenic mice (CRP-transgenic mice; end of infusion, CRP transgenic mice): 7.6 ng/mL
total human leptin concentration in sera, wild-type littermates (CRP-transgenic mice; end of infusion, wild-type littermates): 3.2 ng/mL

human CRP: human C-reactive protein, purified preparation from a commercial source
effect of CRP pre-injection on satiety and weight reducing effects of human leptin, 1.2 μg (ob/ob mice [1]; human CRP 1.2 μg i.c.v. 24 hours before leptin): partially blunted
effect of CRP pre-injection on first injection of human leptin (ob/ob mice [1]; human CRP 2.3 μg/injection): completely blunted
effect of CRP pre-injection on second injection of human leptin (ob/ob mice [1]; human CRP 2.3 μg/injection): at least partially blocked
effect of CRP pre-injection on satiety and weight reducing effects of human leptin, 2.3 μg (ob/ob mice [1]; human CRP 2.3 μg/μl i.c.v. 24 hours before leptin): completely blocked
food consumed after CRP alone compared to PBS alone (ob/ob mice [1]; i.c.v., ob/ob mice): essentially the same amount of food
effect of CRP pre-injection on human leptin-induced STAT3 activation ([2]; human CRP 2.3 μg/injection): drastically diminished
effect of CRP pre-injection on mouse leptin-induced STAT3 activation ([2]; human CRP 2.3 μg/injection): did not block
effect of human CRP on physiological actions of human leptin, separate osmotic pumps (ob/ob mice [3]; food intake, body weight, blood glucose, serum insulin, matched serum CRP): attenuate the physiological actions of human leptin
effect of co-infused human CRP on leptin-induced reduction of food intake and body weight, low dosage (ob/ob mice [3]; human CRP 10 μg/day with human leptin, single pump): only partially attenuated
effect on increase of rectal temperature induced by leptin (ob/ob mice [3]; human CRP 40 μg/day): completely blocked
effect of co-infused human CRP on leptin actions to restrain appetite and induce weight loss, high dosage (ob/ob mice [3]; human CRP 40 μg/day with human leptin, single pump): completely block
activation of STAT3 in hypothalamic tissues on co-infusion of CRP with leptin (ob/ob mice [3]; ob/ob mice): inhibited
effect of CRP alone on food intake and body weight (ob/ob mice [3]; ob/ob mice): did not affect food intake or body weight
effect of CRP alone on food intake and body weight (ob/ob mice [3]; ob/ob mice, listed as CRP): does not influence food intake and body weight
effect of co-infused human CRP on leptin's alleviation of diabetes (ob/ob mice [3]; ob/ob mice, co-infusion with leptin): reverted these effects
effect of human CRP alone on food intake and body weight (CRP-transgenic mice; CRP transgenic mice, no human leptin): did not meaningfully affect
average baseline serum concentration of human CRP (CRP-transgenic mice; mice transgenically expressing human CRP): approximately 15 μg/ml
